According to patent publication US20250034216A1, “STEREOSELECTIVE COVALENT LIGANDS FOR ONCOGENIC AND IMMUNOLOGICAL PROTEINS” (The Scripps Research Institute, priority 2021, published 2025):

Key:
Assay in all cases: IA-DTB cysteine engagement
Assay type in all cases: binding
[1] = biological target: T1, PTGR1_C239 (Homo sapiens, UniProt Q14914); details: 22Rv1 cells, relative to DMSO; for % engagement PTGR1_239: 5 μM probe, 1 h (FIG. 5B); for % engagement PTGR1_C239: 20 μM probe, 1 h
T1 construct: endogenous in cells; host or cells: 22Rv1
T1 sequence (Q14914 whole entry): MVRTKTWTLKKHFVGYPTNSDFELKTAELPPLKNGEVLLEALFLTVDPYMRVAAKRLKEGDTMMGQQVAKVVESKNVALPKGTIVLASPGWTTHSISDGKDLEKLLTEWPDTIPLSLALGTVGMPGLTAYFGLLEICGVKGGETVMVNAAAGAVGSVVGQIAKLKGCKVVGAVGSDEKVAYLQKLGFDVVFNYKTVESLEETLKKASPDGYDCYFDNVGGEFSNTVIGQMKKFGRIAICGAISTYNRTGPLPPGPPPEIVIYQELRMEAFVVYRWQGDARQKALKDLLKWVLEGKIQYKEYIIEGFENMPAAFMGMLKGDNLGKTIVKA
Method: (§1) Sample preparation: Cells (adherent: 15 cm dishes, suspension: 2 million cells/mL) were treated with electrophilic probes in situ for indicated times and concentrations, washed with ice-cold PBS, and flash frozen in liquid nitrogen. Cell pellets were lysed by sonication (8 pulses, 40% power) in 500 μL ice-cold PBS supplemented with cOmplete protease inhibitors (1 tablet/10 mL of PBS). Whole cell lysates protein content was measured using a standard DC protein assay (Bio-Rad) and 500 μL (2 mg/mL protein content) were treated with 5 μL of 10 mM 1A-DTB (in DMSO) for 1 h at ambient temperature with occasional vortexing. Samples were methanol-chloroform precipitated with the addition of 500 μL ice-cold MeOH and 200 μL CHCl3, vortexed, and centrifuged (10 min, 10,000 g). Without disrupting the protein disk, both top and bottom layers were aspirated and the protein disk was washed with 1 mL ice-cold MeOH and centrifuged (10 min, 10,000 g). The pellets were allowed to air dry, and then re-suspended in 90 μL buffer (9 M urea, 10 mM DTT, 50 mM TEAB pH 8.5). Samples were reduced by heating at 65 C for 20 minutes and water bath sonicated as needed to resuspend the protein pellets, followed by alkylation via addition of 10 μL (500 mM) iodoacetamide and incubated at 37 C for 30 min with shaking. Samples were briefly centrifuged, and probe sonicated once more to ensure complete resuspension, and then diluted with 300 μL buffer (50 mM TEAB pH 8.5) to reach final concentration of 2 M urea. Trypsin (4 μL of 0.25 μg/μL in trypsin resuspension buffer with 25 mM CaCl2)) was added to each sample and digested at 37 C for 2 h to overnight. Digested samples were then diluted with 300 μL wash buffer (50 mM TEAB pH 8.5, 150 mM NaCl, 0.2% NP-40) containing streptavidin-agarose beads (50 μL of 50% slurry in wash buffer) and were rotated at room temperature for 2 hours. Enriched samples were pelleted by centrifugation (2000 g, 2 min) and transferred to BioSpin columns and washed (3×1 mL wash buffer, 3×1 mL PBS, 3×1 mL water). Enriched peptides were eluted by 300 μL 50% acetonitrile with 0.1% formic acid and eluate was evaporated to dryness via speedvac. IA-DTB labeled and enriched peptides were resuspended in 100 μL EPPS buffer (200 mM, pH 8.0) with 30% acetonitrile, vortexed, and water bath sonicated. Samples were TMT labeled with 3 μL of corresponding TMT tag (5 mg tag resuspended in 256 μL acetonitrile), vortexed, and incubated at room temperature for 1 hour. TMT labeling was quenched with the addition of hydroxylamine (5 μL 5% solution in H2O) and incubated for 15 minutes at room temperature. Samples were then acidified with 5 μL formic acid, combined and dried using a SpeedVac. Samples were desalted via Sep-Pak and then high pH fractionated.
(§2) Data processing: Cysteine engagement ratios (probe vs DMSO) were calculated for each peptide-spectra match by dividing each TMT reporter ion intensity by the average intensity for the channels corresponding to DMSO treatment. Peptide-spectra matches were then grouped based on protein ID and residue number (e.g., PSME1 C22), excluding peptides with summed reporter ion intensities for the DMSO channels <10,000, coefficient of variation for DMSO channels >0.5, and non-tryptic peptide sequences. TMT reporter ion intensities were normalized to the median summed signal intensity across channels.
(§3) Filtering of cysteine data: Replicates were combined based on cell line and treatment condition (probe, concentration, duration) by averaging cysteine engagement ratios across all experiments.

[2] = biological target: T2, ABCB8_C462 (Homo sapiens, UniProt Q9NUT2); details: 22Rv1 cells, 20 μM probe, 1 h, relative to DMSO
T2 construct: endogenous in cells; host or cells: 22Rv1
T2 sequence (Q9NUT2 26-735): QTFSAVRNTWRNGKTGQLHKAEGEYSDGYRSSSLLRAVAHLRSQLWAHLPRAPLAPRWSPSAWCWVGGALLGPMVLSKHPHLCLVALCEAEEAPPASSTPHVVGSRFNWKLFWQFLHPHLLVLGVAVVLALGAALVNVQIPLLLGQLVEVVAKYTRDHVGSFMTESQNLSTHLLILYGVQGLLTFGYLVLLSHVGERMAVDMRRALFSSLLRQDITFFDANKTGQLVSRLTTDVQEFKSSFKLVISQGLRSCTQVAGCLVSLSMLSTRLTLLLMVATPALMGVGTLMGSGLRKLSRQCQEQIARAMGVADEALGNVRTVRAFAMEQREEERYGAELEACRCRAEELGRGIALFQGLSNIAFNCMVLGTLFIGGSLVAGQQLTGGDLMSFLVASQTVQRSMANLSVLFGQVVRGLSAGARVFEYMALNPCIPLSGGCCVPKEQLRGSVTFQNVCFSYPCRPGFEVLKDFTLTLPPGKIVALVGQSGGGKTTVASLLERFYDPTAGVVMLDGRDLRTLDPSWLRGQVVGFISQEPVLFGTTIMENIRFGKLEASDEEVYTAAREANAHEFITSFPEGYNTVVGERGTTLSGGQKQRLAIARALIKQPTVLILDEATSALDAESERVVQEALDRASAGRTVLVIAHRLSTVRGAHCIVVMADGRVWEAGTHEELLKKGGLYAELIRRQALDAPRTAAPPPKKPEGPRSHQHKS
Method: as §1, §2, §3

[3] = biological target: T3, ABCB8_C454 (Homo sapiens, UniProt Q9NUT2); details: 22Rv1 cells, 20 μM probe, 1 h, relative to DMSO
T3 construct: endogenous in cells; host or cells: 22Rv1
T3 sequence (Q9NUT2 26-735): T2 sequence (Q9NUT2 26-735)
Method: as §1, §2, §3

[4] = biological target: T4, SNX11_C181 (Homo sapiens, UniProt Q9Y5W9); details: 22Rv1 cells, 20 μM probe, 1 h, relative to DMSO
T4 construct: endogenous in cells; host or cells: 22Rv1
T4 sequence (Q9Y5W9 1-270): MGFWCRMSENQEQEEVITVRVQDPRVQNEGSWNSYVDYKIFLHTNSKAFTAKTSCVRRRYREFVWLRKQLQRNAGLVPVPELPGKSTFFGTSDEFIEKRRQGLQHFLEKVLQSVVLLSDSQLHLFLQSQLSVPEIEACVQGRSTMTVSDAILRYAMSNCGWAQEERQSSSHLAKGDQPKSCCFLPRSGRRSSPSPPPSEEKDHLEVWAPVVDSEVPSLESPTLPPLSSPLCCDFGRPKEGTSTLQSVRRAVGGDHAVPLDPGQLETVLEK
Method: as §1, §2, §3

[5] = biological target: T5, BLOC1S2_C41 (Homo sapiens, UniProt Q6QNY1); details: 22Rv1 cells, 20 μM probe, 1 h, relative to DMSO
T5 construct: endogenous in cells; host or cells: 22Rv1
T5 sequence (Q6QNY1 1-142): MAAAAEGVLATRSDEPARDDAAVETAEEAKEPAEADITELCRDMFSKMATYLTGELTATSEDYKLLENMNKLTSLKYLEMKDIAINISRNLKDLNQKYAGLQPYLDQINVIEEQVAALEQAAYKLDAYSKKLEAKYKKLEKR
Method: as §1, §2, §3

| SMILES | % engagement PTGR1_239 [1] [%] | % engagement ABCB8_C462 [2] [%] | % engagement PTGR1_C239 [1] [%] | % engagement ABCB8_C454 [3] [%] | % engagement SNX11_C181 [4] [%] | % engagement BLOC1S2_C41 [5] [%] |
| --- | --- | --- | --- | --- | --- | --- |
| CC#CC(=O)N1C[C@H](c2ccc(Br)cc2)[C@@H]1C(=O)Nc1cccc2cccnc12 [MY-45B, (2R,3S)-3-(4-bromophenyl)-1-(but-2-ynoyl)-N-(quinolin-8-yl)azetidine-2-carboxamide] | −4.50 |  |  |  |  |  |
| C=CC(=O)N1C[C@H](c2ccc(Br)cc2)[C@@H]1C(=O)Nc1cccc2cccnc12 [MY-1B, (2R,3S)-1-acryloyl-3-(4-bromophenyl)-N-(quinolin-8-yl)azetidine-2-carboxamide] | 81.33 | 39 | 79 | 14 | 68.5 | 70 |
| C=CC(=O)N1C[C@H](c2ccc(Br)cc2)[C@H]1C(=O)Nc1cccc2cccnc12 [MY-3B, (2S,3S)-1-acryloyl-3-(4-bromophenyl)-N-(quinolin-8-yl)azetidine-2-carboxamide] |  | 73.25 | −16.5 | 67 | 23 | 66.5 |
| C=CC(=O)N1C[C@H](c2ccc(Br)cc2)[C@H]1C(=O)Nc1cccc2cccnc12 [MY-3A, (2S,3S)-1-acryloyl-3-(4-bromophenyl)-N-(quinolin-8-yl)azetidine-2-carboxamide] |  | 19.5 | −4 | 24 | 17 | 3.5 |
| C=CC(=O)N1C[C@@H](c2ccc(Br)cc2)[C@H]1C(=O)Nc1cccc2cccnc12 [MY-1A, (2S,3R)-1-acryloyl-3-(4-bromophenyl)-N-(quinolin-8-yl)azetidine-2-carboxamide] |  | 28.5 | 75 | −1.25 | 54.5 | 6 |
